Like-named read-outs stand apart in the source and are kept apart here.
Tests used:
[1] = biological target: T1, [V390I/Y410E/E274V]-CfEcR (Choristoneura fumiferana, UniProt O77240); assay type: cell-based; conditions: 3T3 Cells; for RMFI (relative maximum fold induction): relative to GS-E ligand
T1 construct: assay construct b835
Description: (§1) Cellular gene switch assays were performed by transiently transfecting the following constructs in mouse embryonic fibroblast cells (NIH3T3). The wild-type D, E and F domains from Choristoneura fumiferana EcR or its V390I/Y410E/E274V mutant were fused to GAL4-DBD and placed under the control of the CMV promoter in the pBIND vector (Promega Corporation, Madison, Wis., USA). The DEF domains of EcRs shown were amplified using primers designed based on 20-25 nt sequences at the 5′ and 3′ ends. Restriction enzyme sites EcoR I/BamH I and Xba I were added to 5′ and 3′ primers respectively. The PCR products were digested with appropriate restriction enzymes and cloned into pBIND vector. The EcR LBDs cloned into pBIND vector were verified by sequencing. A chimeric RXR from Homo sapiens RXRP and Locusta migratoria RXR, fused to VP16-AD and placed under the control of an SV40e promoter, was constructed as previously described (Kumar P & Katakam A in Gene Transfer, Friedmann T and Rossi J, eds, pp. 643-651 (2007), Cold Spring Harbor Laboratory Press, Cold Spring Harbor, N.Y.). The inducible luciferase reporter plasmid pFRLuc (Stratagene Cloning Systems, La Jolla, Calif., USA), contains five copies of the GAL4 response element and a synthetic minimal promoter.
(§2) NIH3T3 cells were maintained at 37′C and 5% CO2 in Dulbecco's modified Eagle's medium (DMEM) supplemented with 10% bovine calf serum, both obtained from Mediatech Inc., Manassas, Va. Cells were planted in a 96-well plate at a density of 2,500 cells/well in 50 μL of growth medium. The following day cells were first treated with 35 μL of serum-free DMEM containing dimethyl sulfoxide (DMSO; control) or a DMSO solution containing ligand. Cells were then transfected with 15 μl of serum-free DMEM containing 0.04 μg of EcR construct, 0.04 ug of RXR construct, and 0.16 μg of luciferase reporter construct per well, using SuperFect™ transfection reagent (Qiagen Inc., Valencia, Calif., USA) according to the manufacturer's instructions. Ligands were tested at 8 doses from 0.01-33 μM and the final DMSO concentration was 0.33% in both control and treatment wells. After a 48 hour post-treatment and transfection incubation, the cells were assayed for luciferase activity using the Bright-Glo™ Luciferase Assay System (Promega Corporation, Madison, Wis., USA) following the manufacturer's instructions. EC50 values were measured minimally in duplicate.
(§3) Luciferase reporter gene expression was measured 48 h after cell treatment using Bright-Glo™ Luciferase Assay System from Promega (E2650). Luminescence was detected at room temperature using a Dynex MLX microtiter plate luminometer.
(§4) Each assay was conducted in two separate wells, and the two values were averaged. Fold inductions were calculated by dividing relative light units (“RLU”) in ligand treated cells with RLU in DMSO treated cells. EC50s were calculated from dose response data using a three-parameter logistic model. Relative Max FI was determined as the maximum fold induction of the tested ligand (an embodiment of the invention) observed at any concentration relative to the maximum fold induction of GS™-E ligand (3,5-dimethyl-benzoic acid N-tert-butyl-N′-(2-ethyl-3-methoxy-benzoyl)-hydrazide) observed at any concentration.

[2] = biological target: wild-type Choristoneura fumiferana EcR (D, E and F domains) (Choristoneura fumiferana, UniProt O77240); assay type: cell-based; conditions: WT-CtEcR, 3T3 Cells; for RMFI (relative maximum fold induction): relative to GS-E ligand
Description: as §1, §2, §3, §4

SMILES: CCCC(N(NC(=O)c1ccc2c(c1C)OCO2)C(=O)c1cc(C)cc(C)c1)C(C)(C)C (racemic) [rac-20]
- EC50 ([1]; rac, read-out: EC50): 12.1 nM
- RMFI (relative maximum fold induction) ([1]; rac): 0.92
- EC50 ([2]; rac, read-out: EC50): 99.3 nM
- RMFI (relative maximum fold induction) ([2]; rac): 0.90

SMILES: CCCC(N(NC(=O)OC(C)(C)C)C(=O)c1cc(C)cc(C)c1)C(C)(C)C (racemic) [rac-49, rac-N′-(1-tert-Butyl-butyl)-N′-(3,5-dimethyl-benzoyl)-hydrazinecarboxylic acid tert-butyl ester]
- EC50 ([1]; rac): ~4000 nM
- RMFI (relative maximum fold induction) ([1]; rac): 0.50
- EC50 ([2]; rac): > 33000 nM
- RMFI (relative maximum fold induction) ([2]; rac): 0.02

SMILES: C=CCC(CCc1ccccc1)N(NC(=O)c1ccc(CC)cc1)C(=O)c1cc(C)cc(C)c1 (racemic) [rac-62]
- EC50 ([1]; rac, read-out: EC50): 2110 nM
- RMFI (relative maximum fold induction) ([1]; rac): 0.67
- EC50 ([2]; rac, read-out: EC50): ~5000 nM
- RMFI (relative maximum fold induction) ([2]; rac): 0.06

SMILES: CCC[C@@H](N(NC(=O)OC(C)(C)C)C(=O)c1cc(C)cc(C)c1)C(C)(C)C [Example 49, (R)—N′-(1-tert-Butyl-butyl)-N′-(3,5-dimethyl-benzoyl)-hydrazinecarboxylic acid tert-butyl Ester]
- EC50 ([1]; R): 2750 nM
- RMFI (relative maximum fold induction) ([1]; R): 0.59
- EC50 ([2]; R): 15100 nM
- RMFI (relative maximum fold induction) ([2]; R): 0.15

SMILES: CCC[C@@H](N(NC(=O)c1cc(C)oc1C)C(=O)c1cc(C)cc(C)c1)C(C)(C)C [Example 26, (R)-3,5-Dimethyl-benzoic acid N-(1-tert-butyl-butyl)-N′-(2,5-dimethyl-furan-3-carbonyl)-hydrazide]
- EC50 ([1]; R): 99.4 nM
- RMFI (relative maximum fold induction) ([1]; R): 0.95
- EC50 ([2]; R): ~1000 nM
- RMFI (relative maximum fold induction) ([2]; R): 1.16

SMILES: C=CCC(C1CCCCC1)N(NC(=O)c1cccc(OC)c1C)C(=O)c1cc(C)cc(C)c1 (racemic) [rac-60]
- EC50 ([1]; rac, read-out: EC50): ~200 nM
- RMFI (relative maximum fold induction) ([1]; rac): 0.73
- EC50 ([2]; rac, read-out: EC50): ~1000 nM
- RMFI (relative maximum fold induction) ([2]; rac): 0.49

SMILES: C=CCC(C1CCCCC1)N(NC(=O)c1cccc(OC)c1C)C(=O)c1cc(OC)c(C)c(OC)c1 (racemic) [rac-61]
- EC50 ([1]; rac, read-out: EC50): 521 nM
- RMFI (relative maximum fold induction) ([1]; rac): 0.39
- EC50 ([2]; rac, read-out: EC50): ~3300 nM
- RMFI (relative maximum fold induction) ([2]; rac): 0.31

SMILES: CCCC(N(NC(=O)c1ccc(OC)cc1)C(=O)c1cc(C)cc(C)c1)C(C)(C)C (racemic) [rac-13]
- EC50 ([1]; rac, read-out: EC50): ~5 nM
- RMFI (relative maximum fold induction) ([1]; rac): 0.71
- EC50 ([2]; rac, read-out: EC50): ~100 nM
- RMFI (relative maximum fold induction) ([2]; rac): 0.54

SMILES: CCC[C@H](N(NC(=O)c1ccccc1C)C(=O)c1cc(C)cc(C)c1)C(C)(C)C [Example 33, (S)-3,5-Dimethyl-benzoic acid N-(1-tert-butyl-butyl)-N′-(2-methyl-benzoyl)-hydrazide]
- EC50 ([1]; S): ~400 nM
- RMFI (relative maximum fold induction) ([1]; S): 0.48
- EC50 ([2]; S): ~3300 nM
- RMFI (relative maximum fold induction) ([2]; S): 0.20

SMILES: CCC[C@H](N(NC(=O)c1cccnc1Cl)C(=O)c1cc(C)cc(C)c1)C(C)(C)C [Example 45, (S)-3,5-Dimethylbenzoic acid N-(1-tert-butyl-butyl)-N′-(2-chloro-pyridine-3-carbonyl)-hydrazide]
- EC50 ([1]; S): 1470 nM
- RMFI (relative maximum fold induction) ([1]; S): 0.80
- EC50 ([2]; S): ~20000 nM
- RMFI (relative maximum fold induction) ([2]; S): 0.05

SMILES: CCCC(N(NC(=O)c1ccccc1OC)C(=O)c1cc(C)cc(C)c1)C(C)(C)C (racemic) [rac-4]
- EC50 ([1]; rac, read-out: EC50): ~300 nM
- RMFI (relative maximum fold induction) ([1]; rac): 0.72
- EC50 ([2]; rac, read-out: EC50): ~2000 nM
- RMFI (relative maximum fold induction) ([2]; rac): 0.32

SMILES: CCC[C@H](N(NC(=O)c1ccc(C)cc1)C(=O)c1cc(C)cc(C)c1)C(C)(C)C [Example 38, (S)-3,5-Dimethyl-benzoic acid N-(1-tert-butyl-butyl)-N′-(4-methyl-benzoyl)-hydrazide]
- EC50 ([1]; S): 341 nM
- RMFI (relative maximum fold induction) ([1]; S): 0.44
- EC50 ([2]; S): 2170 nM
- RMFI (relative maximum fold induction) ([2]; S): 0.25

SMILES: CCCC(N(NC(=O)c1ccccc1F)C(=O)c1cc(C)cc(C)c1)C(C)(C)C (racemic) [rac-5]
- EC50 ([1]; rac, read-out: EC50): 1.1 nM
- RMFI (relative maximum fold induction) ([1]; rac): 0.67
- EC50 ([2]; rac, read-out: EC50): 81 nM
- RMFI (relative maximum fold induction) ([2]; rac): 0.59

SMILES: CCC[C@H](N(NC(=O)OC(C)(C)C)C(=O)c1cc(C)cc(C)c1)C(C)(C)C [Example 48, (S)—N′-(1-tert-Butyl-butyl)-N′-(3,5-dimethyl-benzoyl)-hydrazinecarboxylic Acid tert-butyl Ester]
- EC50 ([1]; S): 6600 nM
- RMFI (relative maximum fold induction) ([1]; S): 0.20
- EC50 ([2]; S): > 33000 nM
- RMFI (relative maximum fold induction) ([2]; S): 0.03

SMILES: CCCC(N(NC(=O)c1cccc(OC)c1C)C(=O)c1cc(OC)c(C)c(OC)c1)C(C)(C)C (racemic) [rac-51]
- EC50 ([1]; rac, read-out: EC50): 15 nM
- RMFI (relative maximum fold induction) ([1]; rac): 0.81
- EC50 ([2]; rac, read-out: EC50): 80.2 nM
- RMFI (relative maximum fold induction) ([2]; rac): 0.82

SMILES: CCCC(N(NC(=O)c1ccc(C)cc1)C(=O)c1cc(C)cc(C)c1)C(C)(C)C (racemic) [rac-11]
- EC50 ([1]; rac, read-out: EC50): 6.3 nM
- RMFI (relative maximum fold induction) ([1]; rac): 0.73
- EC50 ([2]; rac, read-out: EC50): 89 nM
- RMFI (relative maximum fold induction) ([2]; rac): 0.66

SMILES: CCC[C@H](C1CCCCC1)N(NC(=O)c1cccc(OC)c1)C(=O)c1cc(C)cc(C)c1 [Example 54, (R)-3,5-Dimethyl-benzoic acid N-(1-cyclohexyl-butyl)-N′-(3-methoxy-benzoyl)-hydrazide]
- EC50 ([1]; R): 474 nM
- RMFI (relative maximum fold induction) ([1]; R): 0.44
- EC50 ([2]; R): ~3300 nM
- RMFI (relative maximum fold induction) ([2]; R): 0.19

SMILES: C=CC[C@@H](CCc1ccccc1)N(NC(=O)c1ccc(CC)cc1)C(=O)c1cc(C)cc(C)c1 [Example 62, (R)-3,5-Dimethyl-benzoic Acid N′-(4-ethyl-benzoyl)-N-(1-phenethyl-but-3-enyl)-hydrazide]
- EC50 ([1]; R): 1990 nM
- RMFI (relative maximum fold induction) ([1]; R): 0.54
- EC50 ([2]; R): 3090 nM
- RMFI (relative maximum fold induction) ([2]; R): 0.14

SMILES: CCC[C@H](N(NC(=O)c1cccc(OC)c1C)C(=O)c1cc(C)cc(C)c1)C(C)(C)C [Example 47, (S)-3,5-Dimethyl-benzoic acid N-(1-tert-butyl-butyl)-N′-(3-methoxy-2-methyl-benzoyl)-hydrazide]
- EC50 ([1]; S): 56.3 nM
- RMFI (relative maximum fold induction) ([1]; S): 0.57
- EC50 ([2]; S): ~200 nM
- RMFI (relative maximum fold induction) ([2]; S): 0.49

SMILES: CCCC(N(NC(=O)c1ccc2c(c1CC)OCCO2)C(=O)c1cc(C)cc(C)c1)C(C)(C)C (racemic) [rac-22]
- EC50 ([1]; rac, read-out: EC50): 0.059 nM
- RMFI (relative maximum fold induction) ([1]; rac): 0.79
- EC50 ([2]; rac, read-out: EC50): 0.499 nM
- RMFI (relative maximum fold induction) ([2]; rac): 0.88

SMILES: Cc1cc(C)cc(C(=O)N(NC(=O)OCc2ccccc2)[C@H](CCCO)C(C)(C)C)c1 [Example 64, (R)—N′-(1-tert-Butyl-4-hydroxy-butyl)-N′-(3,5-dimethyl-benzoyl)-hydrazine carboxylic Acid benzyl ester]
- EC50 ([1]; R): ~8000 nM
- RMFI (relative maximum fold induction) ([1]; R): 0.33
- EC50 ([2]; R): > 33000 nM
- RMFI (relative maximum fold induction) ([2]; R): 0.02

SMILES: CCCC(N(NC(=O)c1cc(OC)c(C)c(OC)c1)C(=O)c1cc(C)cc(C)c1)C(C)(C)C (racemic) [rac-19]
- EC50 ([1]; rac, read-out: EC50): 3930 nM
- RMFI (relative maximum fold induction) ([1]; rac): 0.15
- EC50 ([2]; rac, read-out: EC50): > 10000 nM

SMILES: CCC[C@H](C1CCCCC1)N(NC(=O)c1cccc(OC)c1CC)C(=O)c1cc(C)cc(C)c1 [Example 52, (R)-3,5-Dimethyl-benzoic Acid N-(1-cyclohexyl-butyl)-N′-(2-ethyl-3-methoxy-benzoyl)-hydrazide]
- EC50 ([1]; R): ~200 nM
- RMFI (relative maximum fold induction) ([1]; R): 0.64
- EC50 ([2]; R): 220 nM
- RMFI (relative maximum fold induction) ([2]; R): 0.38

Reference: patent US20200270225A1, “Chiral Diacylhydrazine Ligands for Modulating the Expression of Exogenous Genes via an Ecdysone Receptor Complex” (Intrexon Corporation, priority 2007, published 2020)
